Results taken from patent US4673672A, “Substituted-[hydroxy(tetrahydro)-5-oxo-(2- and 3-furanyl or 2-thienyl)alkoxyphosphinyloxy]-alkanaminium hydroxide, inner salt oxides” (Sandoz Pharmaceuticals Corp., priority 1986, dated 1987).
Where a name gives a salt, the structure may show the parent alone.

Tests used:
Abelson 8.1 tumor cells = assay: Influence on Cytotoxicity of ET-18-OCH3 test; assay type: cell-based; details: 5 μg test compound, 72 hours; mouse bone marrow cell macrophages preincubated with 10 μg ET-18-OCH3 for 24 hours; ET-18-OCH3 alone set at 100%
Experimental: Bone marrow cell macrophages (10^5 /well) obtained from [BALB/CX57/BL6 ]Fl mice were incubated with 10 μg of 1-octadecyl-2-methoxy-3-phosphoryl choline (ET-18-OCH3) for 24 hours in flat bottom microtiter plates (Nunc Roskilde, Denmark), after which time they are centrifuged and washed once. Abelson 8.1 tumor cells in DMEM+10% fetal calf serum and 1,3 and 5 μg of the test compound were then added to the plates. With the cytotoxicity of ET-18-OCH3 (10 μg) alone set at 100%, the inhibition or enhancement of the cytotoxic effect, as measured by an alkaline phosphatase assay, was determined and values recorded after 72 hours for 1, 3 and 5 .eta.g of the test substance. At a concentration of 5 μg, the following results were obtained: […]

Meth A sarcoma cells = assay: Meth A sarcoma implanted in CBF1 mice, tumor growth and survival; assay type: in vivo; details: p.o., 50 μg, 28 days; 7.3×10^6 Meth A sarcoma cells implanted; no control animals survived
Text: Meth A fibrosarcoma cells were induced in BALB/C mice by administering methylcholanthrene according to the procedure of Old, et al. (L. J. Old, E. A. Boyse, D. A. Clarke, and E. Carswell, Ann. N.Y. Acad. Sci., 101, 80 (1962). These tumor cells were harvested from the peritoneal cavity 10 to 12 days after administration of methylcholanthrene. Ten CBF1 mice of 10-12 week age were each implanted with 7.3×10^6 Meth A sarcoma cells to serve as control. A second group of ten CBF1 mice were each implanted with 7.3×10^6 Meth A sarcoma cells and on day one after implant each mouse was treated p.o. with 5-50 μg of the test compound per day for a total of twenty or twenty-seven days. Tumor growth and survivors were assayed on days 7, 14, 21 and 28 after tumor implantation. Under these conditions, none of the control group animals survived, whereas 5 out of 10 animals which were administered 50 μg of the compound of Example 2 for 28 days survived and 8 out of 10 animals which were administered 50 μg of the compound of Example 5 for 28 days survived.

Abelson 8.1 lymphoma = assay: Tumor Cell Cytotoxicity test (TCC test), Abelson 8.1 lymphoma; assay type: cell-based; details: 5 μg, 72 hours; alkaline phosphatase assay
Experimental: (§1) As indicated above, all of the compounds of formula I are anti-tumor agents and are, therefore, useful in inhibiting the growth of various lymphomas, sarcomas, myelomas and leukemia cell lines.
(§2) In flat bottom microtiter plates (Nunc Roskilde, Denmark) were placed Abelson 8.1 lymphoma, YAC, L1210, P815, Meth A fibrosarcoma or fresh human neuroblastoma tumor cells in DMEM+10% fetal calf serum and the tumor cell-containing plates were incubated with 1,3 and 5 μg of the test compound for a period of 6 to 72 hours. The number of tumor cells present in the Abelson 8.1, YAC, L1210 and P815 assays was determined by measuring the alkaline phosphatase as follows:
(§3) The tumor cell plates were centrifuged (500×g) for ten minutes and the supernatant flicked off. Without further washing, 100 μl of buffer containing 20 μl of diethanolamine, 2 μM of MgCl2.6H2 O, 2.5 μM of p-nitrophenylphosphate and 10 mg Triton X-100 were added. The samples were incubated for 60 minutes at room temperature and the enzymatic reaction was terminated by the addition of 100 μl of 0.5N NaOH. The absorbance was then measured at 405 nm using a Titertek Multiskan apparatus.
(§4) At a concentration of 5 μg and an incubation period of 72 hours, the following results were obtained: […]

YAC = assay: Tumor Cell Cytotoxicity test (TCC test), YAC; assay type: cell-based; details: 5 μg, 72 hours; alkaline phosphatase assay
Experimental: as §1, §2, §3, §4

Meth A fibrosarcoma = assay: Tumor Cell Cytotoxicity test (TCC test), Meth A fibrosarcoma; assay type: cell-based; details: 5 μg, 72 hours; 3H-thymidine uptake
Experimental: as §1, §2
(§5) The number of tumor cells present in the Meth A fibrosarcoma and human neuroblastoma assays was measured by ^3 H-thymidine uptake as follows:
(§6) After 72 hours, the cells are thoroughly washed, and each well treated with ca. 0.1 μC ^3 H-thymidine. After 4-6 hours, the cells are collected using a commercial cell harvester, and the radioactivity in the […] is measured in a scintillation counter.
as §4

P815 = assay: Tumor Cell Cytotoxicity test (TCC test), P815; assay type: cell-based; details: 5 μg, 72 hours; alkaline phosphatase assay
Experimental: as §1, §2, §3, §4

L1210 = assay: Tumor Cell Cytotoxicity test (TCC test), L1210; assay type: cell-based; details: 5 μg, 72 hours; alkaline phosphatase assay
Experimental: as §1, §2, §3, §4

[1] = tested on: human neuroblastoma tumor cells; assay: Tumor Cell Cytotoxicity test (TCC test), fresh human neuroblastoma tumor cells; assay type: cell-based; details: 5 μg, 72 hours; 3H-thymidine uptake
Experimental: as §1, §2, §5, §6, §4

Structure (SMILES): CCCCCCCCCCCCCCCCCCOCC1(COP(=O)([O-])OCC[N+](C)(C)C)CCCO1 (stereo not shown) [Example 5, 2-[(2-octadecyloxymethyltetrahydro-2-furanylmethoxy)-hydroxyphoshphinyloxyl]-N,N,N-trimethylethanaminium hydroxide inner salt-4-oxide]
- % Enhancement (of the cytotoxic effect of ET-18-OCH3) (Abelson 8.1 tumor cells): > 90%
- animals survived (Meth A sarcoma cells): 8 out of 10
- % Inhibition Abel. (Abelson 8.1 lymphoma): 98%
- % Inhibition YAC (YAC): 96%

Structure (SMILES): CCCCCCCCCCCCCCCCCCC1(COP(=O)([O-])OCC[N+](C)(C)C)CCOC1 (stereo not shown) [Example 7, 2-[(3-octadecyltetrahydro-3-furanylmethoxy)-hydroxyphosphinyloxy]-N,N,N-trimethyl ethanaminium hydroxide, inner salt-4-oxide]
- % Enhancement (of the cytotoxic effect of ET-18-OCH3) (Abelson 8.1 tumor cells): 90%
- % Inhibition Abel. (Abelson 8.1 lymphoma): 70-90%

Structure (SMILES): CCCCCCCCCCCCCCCCCCC1(COP(=O)([O-])OCC[N+](C)(C)C)CCC(=O)O1 (stereo not shown) [Example 2, 2-[hydroxy(tetrahydro)-2-(octadecyl-5-oxo-2-furanyl)methoxyphosphinyloxy]-N,N,N-trimethyl-ethanaminium hydroxide, inner salt-4-oxide]
- % Inhibition Meth A (Meth A fibrosarcoma): 98%
- % Enhancement (of the cytotoxic effect of ET-18-OCH3) (Abelson 8.1 tumor cells): 99.5%
- animals survived (Meth A sarcoma cells): 5 out of 10
- % Inhibition P815 (P815): 84%
- % Inhibition L1210 (L1210): 69%
- % Inhibition neuro. [1]: 59%
- % Inhibition Abel. (Abelson 8.1 lymphoma): 97%
- % Inhibition YAC (YAC): 71%

Structure (SMILES): CCCCCCCCCCCCCCCCCCC1(COP(=O)([O-])OCC[N+](C)(C)C)COC(=O)C1 (stereo not shown) [Example 6, 2-[hydroxy(tetrahydro)-3-(octadecyl-5-oxo-3-furanyl)methoxyphosphinyloxy]-N,N,N-trimethyl ethanaminium hydroxide, inner salt-4-oxide]
- % Enhancement (of the cytotoxic effect of ET-18-OCH3) (Abelson 8.1 tumor cells): 90%
- % Inhibition Abel. (Abelson 8.1 lymphoma): 50-70%
